According to US4258180A, “C6-Modified cyclodextrin sulfate salts as complement inhibitors” (American Cyanamid Company, priority 1979, dated 1981):
Where a name gives a salt, the structure may show the parent alone.

Key:
complement system = conditions: British Journal of Experimental Pathology, 33, 327-339 (1952); cited from earlier work
[1] = system: hereditary angio-neurotic edema; conditions: literature reports; cited from earlier work
shunt pathway = assay: Test Code 036 (C-Shunt inhibitor), lysis of fragile human erythrocytes in autologous serum, cobra venom factor; assay type: biochemical; conditions: serial dilution assay, twofold dilutions; higher well number indicates higher activity; N = Negative
Source text: (§1) An active inhibitor protects C2 from C1 and C4; (ii) Test Code 035 (C3-C9 inhibitor)--This test determines the ability of the late components of human complement (C3-C9) to lyse EAC 142 in the presence of appropriate dilutions of the test compound. An active inhibitor protects EAC 142 from lysis by human C3-C9; (iii) Test Code 036 (C-Shunt inhibitor)--In this test human erythrocytes rendered fragile are lysed in autologous serum via the shunt pathway activated by cobra venom factor in the presence of appropriate dilutions of the test compound. Inhibition of the shunt pathway results in failure of lysis; (iv) Forssman Vasculitis Test--Here, the well known complement dependent lesion, Forssman Vasculitis, is produced in guinea pigs by intradermal injection of rabbit anti-Forssman antiserum. The lesion is measured in terms of diameter, edema and hemorrhage and the extent to which a combined index of these is inhibited by prior intraperitoneal injection of the test compound at 200 mg/kg is then reported, unless otherwise stated; (v) Forssman Shock Test--Lethal shock is produced in guinea pigs by an i.v. injection of anti-Forssman antiserum and the harmonic mean death time of treated guinea pigs is compared with that of simultaneous controls; (vi) Complement Level Reduction Test--In this test, the above dosed guinea pigs, or others, are bled for serum and the complement level is determined in undiluted serum by the capillary tube method of U.S. Pat. No. 3,876,376 and compared to undosed control guinea pigs; and (vii) Cap 50 Test--Here, appropriate amounts of the test compound are added to a pool of guinea pig serum in vitro, after which the undiluted serum capillary tube assay referred to above is run. The concentration of compound inhibiting 50% is reported.

[2] = system: late components of human complement (C3-C9); assay: Test Code 035 (C3-C9 inhibitor), lysis of EAC 142; assay type: biochemical; conditions: serial dilution assay, twofold dilutions; higher well number indicates higher activity; N = Negative
Source text: as §1

activated human C1 = activated human C1 (Homo sapiens, UniProt P09871); assay: Test Code 026 (C1 inhibitor); assay type: biochemical; conditions: serial dilution assay, twofold dilutions; higher well number indicates higher activity
Source text: as §1

| Compound | anticomplementary effect (complement system) | treatment of hereditary angio-neurotic edema [1] | further results |
| --- | --- | --- | --- |
| Nc1ccc2cc(S(=O)(=O)O)cc(O)c2c1N=Nc1ccc(NC(=O)Nc2ccc(N=Nc3c(N)ccc4cc(S(=O)(=O)O)cc(O)c34)c(S(=O)(=O)O)c2)cc1S(=O)(=O)O [chlorazol fast pink, 3,3'-ureylenebis-[6-(2-amino-8-hydroxy-6-sulfo-1-naphthylazo)]benzenesulfonic acid, tetrasodium salt] | anticomplementary effect | – | – |
| NCCCCCC(=O)O [epsilon-aminocaproic acid] | – | used with success | – |
| NC[C@H]1CC[C@H](C(=O)O)CC1 [tranexamic acid] | – | used with success | – |
| C[C@H]1O[C@@H]2O[C@H]3[C@H](OS(=O)(=O)O)[C@@H](OS(=O)(=O)O)[C@@H](O[C@H]4[C@H](OS(=O)(=O)O)[C@@H](OS(=O)(=O)O)[C@@H](O[C@H]5[C@H](OS(=O)(=O)O)[C@@H](OS(=O)(=O)O)[C@@H](O[C@H]6[C@H](OS(=O)(=O)O)[C@@H](OS(=O)(=O)O)[C@@H](O[C@H]7[C@H](OS(=O)(=O)O)[C@@H](OS(=O)(=O)O)[C@@H](O[C@H]8[C@H](OS(=O)(=O)O)[C@@H](OS(=O)(=O)O)[C@@H](O[C@H]1[C@H](OS(=O)(=O)O)[C@H]2OS(=O)(=O)O)O[C@@H]8C)O[C@@H]7C)O[C@@H]6C)O[C@@H]5C)O[C@@H]4C)O[C@@H]3C [β-Cyclo[6-deoxy]dextrin poly(H-sulfate)poly-trimethylamine s] [6,6',6",6'",6"",6'"",6"""-Heptadeoxy-β-cyclodextrin, tetradecakis(H-sulfate), tetradecasalt with trimethylamine] | – | – | 036 Activity in wells (shunt pathway): 4 wells; 035 Activity in wells [2]: 2 wells; 026 Activity in wells (activated human C1): 7 wells |
| heparin | anticomplementary effect | – | – |
